Laboratory results taken from paper PMC12616683, “In Vivo Atlas of Neuroprotective Cyclic Dipeptides Derived from Food Gelatin Using Peptidomics and Feature-Based Molecular Networking” (Journal of Agricultural and Food Chemistry, 2025).
Square brackets hold non-standard residues; d marks the D form. Peptide text beside a SMILES is read from it. pGlu = O=C1CC[CH](C(=O)O)N1

Experiment: FBMN analysis of short peptides in small intestine contents and serum after oral DHG
Conditions: for Peptide signal (feature intensity) in the small intestine, 30 min / Peptide signal (feature intensity) in the small intestine, 60 min / Peptide signal (feature intensity) in the small intestine, 120 min / Peptide signal (feature intensity) in the small intestine, 240 min: small intestine contents, C57 mice, FBMN feature intensity, peptides smaller than 690 Da; for Peptide signal (feature intensity) in the small intestine, 30 min: 30 min after oral DHG; for Peptide signal (feature intensity) in the small intestine, 60 min: 60 min after oral DHG; for Peptide signal (feature intensity) in the small intestine, 120 min: 120 min after oral DHG; for Peptide signal (feature intensity) in the small intestine, 240 min: 240 min after oral DHG; for time detected in serum (FBMN): time points 0.5-4 h after oral DHG

SMILES | Peptide signal (feature intensity) in the small intestine, 30 min | Peptide signal (feature intensity) in the small intestine, 60 min | Peptide signal (feature intensity) in the small intestine, 120 min | Peptide signal (feature intensity) in the small intestine, 240 min | time detected in serum (FBMN)
N[C@@H](Cc1ccccc1)C(=O)N[C@@H](CCC(=O)O)C(=O)O [Phe-Glu] (H-Phe-Glu-OH) | 1.31E+07 | 3.77E+06 | 0.00E+00 | 0.00E+00 | –
CCC(C)C(NC(=O)C1CCC(=O)N1)C(=O)O (stereo not drawn) [PyroGlu-Ile] ([pGlu]-Ile-OH; configuration not given here) | 7.74E+05 | 1.17E+06 | 5.33E+05 | 0.00E+00 | only detected in the first hour
CSCC[C@H](N)C(=O)N[C@@H](Cc1ccccc1)C(=O)O [Met-Phe] (H-Met-Phe-OH) | 0.00E+00 | 0.00E+00 | 5.87E+05 | 2.12E+06 | –
N[C@@H](CC(=O)O)C(=O)N1CCC[C@H]1C(=O)O [Asp-Pro] (H-Asp-Pro-OH) | 0.00E+00 | 7.32E+06 | 1.15E+07 | 2.09E+07 | –
NC(Cc1ccccc1)C(=O)NC(Cc1ccc(O)cc1)C(=O)O (stereo not drawn) [Phe-Tyr] (H-Phe-Tyr-OH; configuration not given here) | 4.42E+05 | 1.79E+06 | 8.30E+05 | 0.00E+00 | –
NC(=O)C[C@H](N)C(=O)N[C@@H](Cc1ccccc1)C(=O)O [Asn-Phe] (H-Asn-Phe-OH) | 2.16E+06 | 2.86E+06 | 5.41E+06 | 4.96E+06 | –
CSCC[C@H](NC(=O)CN)C(=O)O [Gly-Met] | 2.08E+06 | 7.49E+05 | 0.00E+00 | 0.00E+00 | –
CSCC[C@H](NC(=O)[C@@H](N)Cc1c[nH]c2ccccc12)C(=O)O [Trp-Met] (H-Trp-Met-OH) | 0.00E+00 | 0.00E+00 | 0.00E+00 | 1.16E+06 | –
NC(Cc1ccc(O)cc1)C(=O)NC(Cc1ccc(O)cc1)C(=O)O (stereo not drawn) [Tyr-Tyr] (H-Tyr-Tyr-OH; configuration not given here) | 2.40E+05 | 1.86E+06 | 0.00E+00 | 0.00E+00 | –
N[C@@H](Cc1cnc[nH]1)C(=O)N[C@@H](Cc1c[nH]c2ccccc12)C(=O)O [His-Trp] | 1.94E+06 | 0.00E+00 | 1.97E+06 | 5.05E+06 | –
O=C1CCC(C(=O)N2CCCC2C(=O)O)N1 (stereo not drawn) [PyroGlu-Pro] ([pGlu]-Pro-OH; configuration not given here) | 0.00E+00 | 1.75E+07 | 0.00E+00 | 1.91E+07 | –
CC[C@H](C)[C@H](N)C(=O)N[C@@H](CCC(=O)O)C(=O)N[C@@H](CCCCN)C(=O)O [Ile-Glu-Lys] (H-Ile-Glu-Lys-OH) | 0.00E+00 | 6.83E+05 | 0.00E+00 | 2.93E+06 | –
O=C1CNC(=O)C(Cc2ccccc2)N1 [cyclo(glycinyl-L-phenylalanine)] | 1.21E+06 | 0.00E+00 | 9.00E+05 | 4.18E+05 | –

The remaining lines, values ahead:

Peptide signal (feature intensity) in the small intestine, 30 min | Peptide signal (feature intensity) in the small intestine, 60 min | Peptide signal (feature intensity) in the small intestine, 120 min | Peptide signal (feature intensity) in the small intestine, 240 min | time detected in serum (FBMN) | SMILES
1.85E+06 | 1.64E+06 | 0.00E+00 | 0.00E+00 | – | CC(C)C[C@H](N)C(=O)N[C@@H](C)C(=O)O [Leu-ala] (H-Leu-Ala-OH)
0.00E+00 | 0.00E+00 | 5.98E+05 | 1.03E+06 | – | CSCCC(N)C(=O)NC(C(=O)O)C(C)C (stereo not drawn) [Met-Val] (H-Met-Val-OH; configuration not given here)
1.38E+06 | 1.78E+06 | 0.00E+00 | 0.00E+00 | – | CC(C)[C@H](N)C(=O)N[C@@H](Cc1ccccc1)C(=O)O [Val-Phe] (H-Val-Phe-OH)
1.12E+06 | 1.09E+06 | 0.00E+00 | 0.00E+00 | – | CC(C)C(NC(=O)C(N)Cc1ccccc1)C(=O)O (stereo not drawn) [Phe-Val] (H-Phe-Val-OH; configuration not given here)
5.52E+06 | 1.24E+07 | 0.00E+00 | 0.00E+00 | – | CC(C)[C@H](N)C(=O)N[C@H](C(=O)O)C(C)C [Val-Val] (H-Val-Val-OH)
2.28E+06 | 2.16E+06 | 0.00E+00 | 0.00E+00 | – | CC(C)CC(NC(=O)C(N)Cc1ccc(O)cc1)C(=O)O (stereo not drawn) [Tyr-Leu] (H-Tyr-Leu-OH; configuration not given here)
0.00E+00 | 1.15E+07 | 0.00E+00 | 1.59E+07 | – | CC(C)CC(NC(=O)C(N)CO)C(=O)O (stereo not drawn) [Ser-Leu] (H-Ser-Leu-OH; configuration not given here)
0.00E+00 | 5.23E+06 | 0.00E+00 | 2.48E+07 | – | CC(C)[C@H](NC(=O)[C@@H](N)CO)C(=O)O [Ser-Val] (H-Ser-Val-OH)
1.55E+06 | 1.54E+06 | 4.19E+06 | 2.54E+06 | – | CC[C@H](C)[C@H](NC(=O)[C@@H](N)CC(N)=O)C(=O)O [Asn-Ile] (H-Asn-Ile-OH)
5.29E+05 | 1.54E+05 | 0.00E+00 | 1.07E+06 | – | CC(C)CC(NC(=O)C(NC(=O)C(N)C(C)O)C(C)C)C(=O)O (stereo not drawn) [Thr-Val-Leu] (H-Thr-Val-Leu-OH; configuration not given here)
0.00E+00 | 2.90E+06 | 1.40E+06 | 1.45E+06 | – | CC[C@H](C)[C@H](N)C(=O)NCC(=O)N[C@H](C(=O)O)[C@@H](C)CC [Ile-Gly-Ile] (H-Ile-Gly-Ile-OH)
2.64E+06 | 2.44E+06 | 0.00E+00 | 0.00E+00 | ≥ 4 h | CC(C)CC(NC(=O)C(N)Cc1ccccc1)C(=O)O (stereo not drawn) [Phe-Leu] (H-Phe-Leu-OH; configuration not given here)
0.00E+00 | 0.00E+00 | 0.00E+00 | 0.00E+00 | – | CCC(C)C(N)C(=O)NC(CCCCN)C(=O)O (stereo not drawn) [Ile-Lys] (H-Ile-Lys-OH; configuration not given here)
0.00E+00 | 7.64E+06 | 0.00E+00 | 1.03E+07 | – | CC(C)[C@H](NC(=O)[C@@H]1CCC(=O)N1)C(=O)O [PyroGlu-Val] (HELM PEPTIDE1{[Glp].V}$$$$V2.0)
4.35E+07 | 3.24E+07 | 0.00E+00 | 4.99E+06 | – | CC(C)[C@H](N)C(=O)NCC(=O)N[C@H](C(=O)O)C(C)C [Val-Gly-Val] (H-Val-Gly-Val-OH)
